Common to all, as to assay type: functional, cell-based
Experiment [1] is described as follows: Antiproliferative activity against mouse WEHI-3 cells assessed as inhibition cell proliferation incubated for 72 hrs by MTT assay. Particulars: WEHI-3, 72 h.
The subject of the next experiment is Kasumi 1. The experiment is described as follows: Antiproliferative activity against human Kasumi 1 cells assessed as inhibition cell proliferation incubated for 72 hrs by MTT assay. Particulars: Kasumi 1, 72 h.
The next experiment has as its system MV4-11. Briefly: Antiproliferative activity against human MV4-11 cells assessed as inhibition cell proliferation incubated for 72 hrs by MTT assay. Particulars: MV4-11, 72 h.

In the case of `C=C1C[C@@H]2[C@@H](CC[C@]3(C)[C@@H](OS(=O)(=O)CCCCCCC)CC[C@@H]23)OC1=O`, the 50% inhibitory concentration (IC50) (in experiment [1]; in the experiment with Kasumi 1; in the experiment with MV4-11) was above 20 µM throughout.
For `C=C1C[C@@H]2[C@@H](CC[C@]3(C)[C@@H](OC(=O)c4ccc(-c5ccccc5)cc4)CC[C@@H]23)OC1=O`, the IC50 in experiment [1] was determined as 14.3 µM; in the experiment with Kasumi 1, 18.1 µM; with MV4-11, 20 µM.
The like results for `C=C1C[C@@H]2[C@@H](CC[C@]3(C)[C@@H](O[Si](C)(C)CCCCl)CC[C@@H]23)OC1=O` were, in that order, above 20 µM, above 20 µM and above 20 µM.
In the case of `C=C1C[C@@H]2[C@@H](CC[C@]3(C)[C@@H](OC(=O)c4ccccc4)CC[C@@H]23)OC1=O`, the values for the IC50 (in experiment [1]; with Kasumi 1; in the experiment with MV4-11) were 10.3 µM, 18.8 µM and 16 µM, respectively.
The like results for `C=C1C[C@@H]2[C@@H](CC[C@]3(C)[C@@H](O[Si](C)(C)C(C)C)CC[C@@H]23)OC1=O` were, in that order, above 20 µM, above 20 µM and above 20 µM.
Regarding `C=C1C[C@@H]2[C@@H](CC[C@]3(C)[C@@H](OS(=O)(=O)c4cccnc4)CC[C@@H]23)OC1=O`, the IC50 is 13.3 µM in experiment [1], 10.9 µM in the experiment on Kasumi 1 and above 20 µM with MV4-11.
As for `C=C1C[C@@H]2[C@@H](CC[C@]3(C)[C@@H](O[Si](CC)(CC)CC)CC[C@@H]23)OC1=O`, the half-maximal inhibitory concentration (IC50) in experiment [1] was 2.14 µM; in the experiment on Kasumi 1, 2.97 µM; with MV4-11, 4.53 µM.
In the case of `C[C@]12CC[C@H]3OC(=O)CC[C@H]3[C@@H]1CCC2=O`, the IC50 (in experiment [1]; in the experiment on Kasumi 1; in the experiment on MV4-11) was above 100 µM in each case.
Regarding `C=C1C[C@@H]2[C@@H](CC[C@]3(C)[C@@H](OS(=O)(=O)C[C@]45CC[C@](C)(C(=O)C4)C5(C)C)CC[C@@H]23)OC1=O`, the IC50 in experiment [1] was 8.29 µM; in the experiment on Kasumi 1, 9.8 µM; in the experiment with MV4-11, 12.3 µM.
`C=C1C[C@@H]2[C@@H](CC[C@]3(C)[C@@H](OS(=O)(=O)c4ccsc4C(=O)OC)CC[C@@H]23)OC1=O`: the IC50 in experiment [1] was 18 µM; in the experiment with Kasumi 1, above 20 µM; in the experiment on MV4-11, above 20 µM.
For the compound `C=C1C[C@@H]2[C@@H](CC[C@]3(C)[C@@H](O[Si](C)(C)C(C)(C)C)CC[C@@H]23)OC1=O`, the results for the IC50 (in experiment [1]; with Kasumi 1; in the experiment on MV4-11) were 2.36 µM, 3.72 µM and 8.36 µM, respectively.
For `C=C1C[C@@H]2[C@@H](CC[C@]3(C)[C@@H](OC(=O)C4CC4)CC[C@@H]23)OC1=O`, the IC50 (in experiment [1]; in the experiment with Kasumi 1; in the experiment on MV4-11) was above 20 µM in each case.
In the case of `C=C1C[C@@H]2[C@@H](CC[C@]3(C)[C@@H](OC(=O)c4ccc(CC)cc4)CC[C@@H]23)OC1=O`, the IC50 was 6.73 µM in experiment [1], 10.3 µM in the experiment on Kasumi 1 and 16.4 µM in the experiment on MV4-11.
As for `C=C1C[C@@H]2[C@@H](CC[C@]3(C)[C@@H](OS(=O)(=O)Cc4ccccc4)CC[C@@H]23)OC1=O`, the IC50 is 18.6 µM in experiment [1], 15.3 µM in the experiment with Kasumi 1 and above 20 µM with MV4-11.
`C=C1C[C@@H]2[C@@H](CC[C@]3(C)[C@@H](OS(=O)(=O)CCC)CC[C@@H]23)OC1=O`: the IC50 (in experiment [1]; in the experiment on Kasumi 1; with MV4-11) was above 20 µM throughout.
On to `C=C1C[C@@H]2[C@@H](CC[C@]3(C)[C@@H](O[Si](CCC)(CCC)CCC)CC[C@@H]23)OC1=O`, for which the figures for the IC50 (in experiment [1]; in the experiment with Kasumi 1; in the experiment with MV4-11) were 1.46 µM, 1.29 µM and 2.17 µM, respectively.
In the case of `C=C1C[C@@H]2[C@@H](CC[C@]3(C)[C@@H](O[Si](C)(C)C4CCCCC4)CC[C@@H]23)OC1=O`, the IC50 in experiment [1] stood at 7.96 µM; in the experiment with Kasumi 1, 9.25 µM; in the experiment on MV4-11, 10.4 µM.
Regarding `C=C1C[C@@H]2[C@@H](CC[C@]3(C)[C@@H](OC(=O)C4CCCC4)CC[C@@H]23)OC1=O`, the IC50 in experiment [1] is 15.3 µM; with Kasumi 1 it was above 20 µM; with MV4-11, above 20 µM.
As to `C=C[Si](C)(O[C@H]1CC[C@H]2[C@@H]3CC(=C)C(=O)O[C@@H]3CC[C@]12C)c1ccccc1` (some centres undefined), the IC50 in experiment [1] is 15.4 µM; in the experiment on Kasumi 1, 16.3 µM; with MV4-11, above 20 µM.
Consider `C=C[Si](C)(C)O[C@H]1CC[C@H]2[C@@H]3CC(=C)C(=O)O[C@@H]3CC[C@]12C`, for which the IC50 (in experiment [1]; with Kasumi 1; in the experiment with MV4-11) was above 20 µM throughout.
Take `C=C1C[C@@H]2[C@@H](CC[C@]3(C)[C@@H](O)CC[C@@H]23)OC1=O`: the figures for the IC50 (in experiment [1]; in the experiment with Kasumi 1; in the experiment on MV4-11) were 12.6 µM, above 20 µM and above 20 µM, respectively.
`C#CCCCC(=O)O[C@H]1CC[C@H]2[C@@H]3CC(=C)C(=O)O[C@@H]3CC[C@]12C`: the IC50 (in experiment [1]; in the experiment on Kasumi 1; in the experiment on MV4-11) was above 20 µM each time.
Take `C=C1C[C@@H]2[C@@H](CC[C@]3(C)[C@@H](OC(=O)c4ccc(F)cc4)CC[C@@H]23)OC1=O`: the IC50 in experiment [1] stood at 6.27 µM; with Kasumi 1, 10.4 µM; in the experiment with MV4-11, 13.4 µM.
As to `C=C1C[C@@H]2[C@@H](CC[C@]3(C)[C@@H](OC(=O)c4ccc(OC)cc4)CC[C@@H]23)OC1=O`, the IC50 in experiment [1] was 9.43 µM; with Kasumi 1, 15.4 µM; with MV4-11, above 20 µM.
Consider `C=C1C[C@@H]2[C@@H](CC[C@]3(C)[C@@H](O[Si](OC)(OC)OC)CC[C@@H]23)OC1=O`, for which the IC50 (in experiment [1]; in the experiment with Kasumi 1; in the experiment with MV4-11) was above 20 µM in each case.
On to `C=C1C[C@@H]2[C@@H](CC[C@]3(C)[C@@H](O[Si](C)(C)CCCCCCCCCCCCCCCCCC)CC[C@@H]23)OC1=O`, for which the IC50 in experiment [1] was found to be 6.25 µM; in the experiment with Kasumi 1, 5.93 µM; with MV4-11, 8.89 µM.
The like results for `C=C1C[C@@H]2[C@@H](CC[C@]3(C)[C@@H](OC(=O)c4ccc(C(F)(F)F)cn4)CC[C@@H]23)OC1=O` were, in that order, 8.21 µM, 15.3 µM and 14.2 µM.
As for `CC(C)[Si](O[C@H]1CC[C@H]2[C@@H]3CCC(=O)O[C@@H]3CC[C@]12C)(C(C)C)C(C)C`, the IC50 (in experiment [1]; in the experiment with Kasumi 1; with MV4-11) was above 20 µM in each case.
As for `C=C1C[C@@H]2[C@@H](CC[C@]3(C)[C@@H](OS(=O)(=O)c4c(C)noc4C)CC[C@@H]23)OC1=O`, the IC50 is 13.3 µM in experiment [1], 14.3 µM in the experiment on Kasumi 1 and 15.9 µM in the experiment with MV4-11.
For the compound `C=C1C[C@@H]2[C@@H](CC[C@]3(C)[C@@H](O[Si](c4ccccc4)(c4ccccc4)c4ccccc4)CC[C@@H]23)OC1=O`, the IC50 in experiment [1] was 4.61 µM; with Kasumi 1, 5.86 µM; in the experiment on MV4-11 it was 5.32 µM.
As for `C=C1C[C@@H]2[C@@H](CC[C@]3(C)[C@@H](OC(c4ccccc4)c4ccccc4)CC[C@@H]23)OC1=O`, the IC50 in experiment [1] amounted to 3.58 µM; in the experiment with Kasumi 1, 2.89 µM; in the experiment with MV4-11, 4.66 µM.
As to `C=C1C[C@@H]2[C@@H](CC[C@]3(C)[C@@H](OC(=O)c4ccccn4)CC[C@@H]23)OC1=O`, the IC50 in experiment [1] is 8.85 µM; in the experiment on Kasumi 1, 13.7 µM; in the experiment with MV4-11, 16.6 µM.
Taken in the same sequence, the figures for `C=C1C[C@@H]2[C@@H](CC[C@]3(C)[C@@H](OC(=O)c4ccc(C(F)(F)F)cc4)CC[C@@H]23)OC1=O` were 10.2 µM, 9.97 µM and 16.6 µM.
Turning to `C=C1C[C@@H]2[C@@H](CC[C@]3(C)[C@@H](O[Si](c4ccccc4)(c4ccccc4)C(C)(C)C)CC[C@@H]23)OC1=O`, the IC50 in experiment [1] was 1.37 µM; in the experiment on Kasumi 1, 1.51 µM; with MV4-11, 3.89 µM.
Consider `C=C1C[C@@H]2[C@@H](CC[C@]3(C)[C@@H](OS(=O)(=O)c4cccs4)CC[C@@H]23)OC1=O`, for which the IC50 in experiment [1] was 8.25 µM; in the experiment with Kasumi 1, 9.32 µM; with MV4-11, 8.71 µM.
Regarding `C=C1C[C@@H]2[C@@H](CC[C@]3(C)[C@@H](OC=O)CC[C@@H]23)OC1=O`, the values for the IC50 (in experiment [1]; in the experiment with Kasumi 1; in the experiment on MV4-11) were 13.7 µM, 16.4 µM and above 20 µM, respectively.
In the case of `C=C1C[C@@H]2[C@@H](CC[C@]3(C)[C@@H](OS(=O)(=O)c4ccc(OC)cc4)CC[C@@H]23)OC1=O`, the IC50 in experiment [1] was 9.29 µM; in the experiment with Kasumi 1, 8.36 µM; in the experiment on MV4-11 it was 14.6 µM.
Consider `C=C1C[C@@H]2[C@@H](CC[C@]3(C)[C@@H](OC(C)(C)C)CC[C@@H]23)OC1=O`, for which the IC50 in experiment [1] was 7.17 µM; in the experiment with Kasumi 1, 8.98 µM; in the experiment on MV4-11 it was 11.7 µM.
Take `C=C1C[C@@H]2[C@@H](CC[C@]3(C)[C@@H](OS(=O)(=O)c4ccc(C#N)cc4)CC[C@@H]23)OC1=O`: the IC50 in experiment [1] is 7.62 µM; in the experiment on Kasumi 1 it was 8.92 µM; in the experiment with MV4-11, 9.13 µM.
Taken in the same sequence, the figures for `C=C1C[C@@H]2[C@@H](CC[C@]3(C)[C@@H](OS(=O)(=O)CCN4C(=O)c5ccccc5C4=O)CC[C@@H]23)OC1=O` were 9.17 µM, 7.82 µM and 15.4 µM.
`C=C1C[C@@H]2[C@@H](CC[C@]3(C)[C@@H](O[Si](OCC)(OCC)OCC)CC[C@@H]23)OC1=O`: the IC50 (in experiment [1]; in the experiment with Kasumi 1; in the experiment with MV4-11) was above 20 µM each time.
On to `C=C1C[C@@H]2[C@@H](CC[C@]3(C)[C@@H](OS(=O)(=O)c4ccc(C)cc4)CC[C@@H]23)OC1=O`, for which the IC50 in experiment [1] came to 9.28 µM; in the experiment on Kasumi 1, 8.25 µM; in the experiment with MV4-11, 9.46 µM.
The like results for `C=C1C[C@@H]2[C@@H](CC[C@]3(C)[C@@H](O[Si](C)(C)C)CC[C@@H]23)OC1=O` were, in that order, 14.2 µM, 16.3 µM and above 20 µM.
